{
  "source": "paper PMC2981508",
  "about": "(Science (New York, N.Y.), 2009)",
  "key": {"[1]": {"system": "VCaP cells", "experiment": "VCaP apoptosis", "type": "cell-based, human", "conditions": "10 μM, 1 or 3 days, PARP cleavage"}, "[2]": {"system": "PSA and TMPRSS2 in parental LNCaP cells", "experiment": "Antagonism of R1881 induction of PSA and TMPRSS2 in parental LNCaP cells", "type": "cell-based, human"}, "[3]": {"system": "DU145 human prostate cancer cells", "experiment": "Growth of AR-negative DU145 cells in vitro", "type": "cell-based"}, "[4]": {"system": "AR recruitment to PSA enhancer and TMPRSS2 enhancer in LNCaP/AR cells", "experiment": "Chromatin immunoprecipitation of AR in LNCaP/AR cells", "type": "cell-based, human"}, "[5]": {"system": "LNCaP/AR tumors", "experiment": "LNCaP/AR xenograft model of CRPC in castrate male mice"}, "[6]": {"system": "AR recruitment to PSA enhancer and TMPRSS2 enhancer in parental LNCaP cells", "experiment": "Chromatin immunoprecipitation of AR in parental LNCaP cells", "type": "cell-based, human"}, "[7]": {"system": "serum PSA", "experiment": "Phase I/II clinical trial in men with CRPC", "type": "in vivo, human"}, "[8]": {"system": "AR target genes PSA and TMPRSS2 in LNCaP/AR cells", "experiment": "qRT-PCR of AR-dependent genes in LNCaP/AR cells", "type": "cell-based, human", "conditions": "androgen-depleted media 5% CSS, 8 hours, 1 and 10 μM"}, "[9]": {"system": "VCaP cells", "experiment": "VCaP cell proliferation", "type": "cell-based, human", "conditions": "1 and 10 μM, media containing FBS"}, "[10]": {"system": "VP16-AR fusion protein", "type": "cell-based", "conditions": "Cos-7 cells, 24 hours"}, "[11]": {"system": "AR", "conditions": "cited from earlier work"}, "[12]": {"system": "DU145 prostate cancer xenografts", "experiment": "AR-negative DU145 prostate cancer xenografts", "parameters": "species or system mice", "conditions": "mouse, in vivo"}, "[13]": {"experiment": "Plasma levels in LNCaP/AR tumor-bearing mice", "conditions": "10 mg/kg oral daily, 20 hours after the final dose on day 28"}},
  "data": [
    {"compound": "CNC(=O)c1ccc(N2C(=S)N(c3ccc(C#N)c(C(F)(F)F)c3)C(=O)C2(C)C)cc1F", "note": "[MDV3100]", "values": [
      {"measurement": "Apoptosis in VCaP cells", "setting": "[1]", "result": "induced apoptosis"},
      {"measurement": "Antagonism of induction of PSA and TMPRSS2 by R1881", "setting": "[2]", "result": "antagonized induction"},
      {"measurement": "Growth suppression in AR-negative DU145 cells", "setting": "[3]", "result": "not observed"},
      {"measurement": "AR recruitment to PSA enhancer and TMPRSS2 enhancer", "setting": "[4]", "result": "Neither RD162 nor MDV3100 recruited AR"},
      {"measurement": "Tumor responses", "setting": "[5]; MDV3100 treatment (fig. S5)", "result": "Tumor responses were also observed"},
      {"measurement": "AR recruitment to PSA enhancer and TMPRSS2 enhancer", "setting": "[6]", "result": "Neither RD162 nor MDV3100 recruited AR"},
      {"measurement": "Patients with sustained decline in serum PSA levels for at least 12 weeks (of 30)", "setting": "[7]; 30 mg or 60 mg daily oral", "result": "Twenty-two"},
      {"measurement": "Tolerability", "setting": "[7]; 30 mg or 60 mg daily oral", "result": "well tolerated"},
      {"measurement": "patients remaining on study longer than 25 weeks (of 30)", "setting": "[7]; 30 mg or 60 mg daily oral", "result": 11, "unit": "patients"},
      {"measurement": "Percent of patients with sustained declines (by >50 percent) in serum PSA", "setting": "[7]; first 30 patients", "result": 43, "unit": "%"},
      {"measurement": "Expression of AR target genes PSA and TMPRSS2 (agonist activity)", "setting": "[8]", "result": "do not have agonist activity"},
      {"measurement": "Growth of VCaP cells", "setting": "[9]", "result": "suppressed growth"}
    ]},
    {"compound": "C[C@]1(O)CC[C@H]2[C@@H]3CCC4=CC(=O)CCC4=C3C=C[C@@]21C", "note": "[R1881, reference compound]", "values": [
      {"measurement": "AR recruitment to PSA enhancer and TMPRSS2 enhancer", "setting": "[4]", "result": "promoted AR recruitment"},
      {"measurement": "AR recruitment to PSA enhancer and TMPRSS2 enhancer", "setting": "[6]", "result": "only R1881 promoted recruitment"},
      {"measurement": "Activation of VP16-AR", "setting": "[10]", "result": "activated VP16-AR"}
    ]},
    {"compound": "CC1(C)C(=O)N(c2ccc(C#N)c(C(F)(F)F)c2)C(=S)N1CCCCO", "note": "[RU59063]", "values": [
      {"measurement": "affinity for AR, fold reduced compared to testosterone", "setting": "[11]", "result": 3, "unit": "fold"}
    ]},
    {"compound": "CC(O)(CS(=O)(=O)c1ccc(F)cc1)C(=O)Nc1ccc(C#N)c(C(F)(F)F)c1", "note": "(stereo not drawn) [bicalutamide, reference compound]", "values": [
      {"measurement": "AR recruitment to PSA enhancer and TMPRSS2 enhancer", "setting": "[4]", "result": "promoted AR recruitment"},
      {"measurement": "Tumors progressed on treatment (of 12)", "setting": "[5]; 10 mg/kg oral daily, 28 days", "result": "seven tumors"},
      {"measurement": "Tumors regressed (12 tumors per group)", "setting": "[5]; 10 mg/kg oral daily, 28 days", "result": "one tumor regressed by 50%"},
      {"measurement": "Tumors with stable disease (of 12)", "setting": "[5]; 10 mg/kg oral daily, 28 days", "result": "four tumors"},
      {"measurement": "increase in tumor volume of progressing tumors", "setting": "[5]; 10 mg/kg oral daily, 28 days", "result": "up to 5 fold"},
      {"measurement": "Median time to tumor progression", "setting": "[5]; continual 10 mg/kg oral daily treatment", "result": 35, "unit": "days"},
      {"measurement": "growth of AR-negative DU145 xenografts", "setting": "[12]", "result": "neither bicalutamide nor RD162 impaired the growth"},
      {"measurement": "Plasma levels (mean)", "setting": "[13]", "result": 40, "unit": "µM"},
      {"measurement": "Plasma levels in all mice", "setting": "[13]", "result": "exceeded 25 μM"},
      {"measurement": "AR recruitment to PSA enhancer and TMPRSS2 enhancer", "setting": "[6]", "result": "only R1881 promoted recruitment"},
      {"measurement": "Expression of AR target genes PSA and TMPRSS2 (agonist activity)", "setting": "[8]", "result": "induced"}
    ]}
  ]
}
